Assay [1] concerns ATF4. In words: ATF4 activity assay (HEK293-ATF4-Luc, luciferase). Format: cell-based. To be noted: 12.5 nM Halofuginone, 6 hours, FIG. 3. As for the experimental part: HEK293-ATF4-Luc cells were with culture medium 1.5e^5 cells/mL and 25 μL of cell suspension was added into each well of 384-well cell culture plate (Corning, CLS3570-50EA) as designated and transferred into 37° C.-5% CO2 incubator (Thermo Scientific) overnight for cell attachment. HC-7366 was serially diluted to 11 concentrations by 3-fold dilution in DMSO and 25 nL of stock was plated into cell plate by Echo550 (Labcyte, Echo550), then incubated for 30 minutes at 37° C. After HC-7366 treatment, cells were treated with either DMSO or 12.5 nM Halofuginone to activate GCN2 for 6 hours. After 6 hours, 25 μL of One-Glo reagent (Promega, cat #: E6120) was added into each well to be detected (at 1:1 to culture medium). Then the plates were placed at room temperature for 10 min followed by luciferase luminescence reading on EnVision (PerkinElmer). The data were analyzed by XLfit (v5.3.1.3), equation 201.

The test system of assay [2] is MOLM-16 (human AML cells). As to the kind of experiment: In vivo tumor growth inhibition, MOLM-16 xenograft. Also on record: species or system NOD SCID mice. As for the experimental part:
MOLM-16 (human AML cells): Female 6-8 weeks old nonobese diabetic/severe combined immunodeficiency (NOD SCID) mice were inoculated subcutaneously on the right flank with MOLM-16 tumor cells (1×10^7) in RPMI 1640 without serum for tumor development. The treatments were started when the mean tumor size reached approximately 220 mm^3 at Day 14 after cell inoculation and continued until end of study by twice daily oral gavage dosing of HC-7366 at listed doses (vehicle, 0.25 mg/kg HC-7366, 0.5 mg/kg HC-7366, 1 mg/kg HC-7366, or 2 mg/kg HC-7366, FIG. 16)
(§1) [formula] • 2.2.2 Tumor Measurements: The measurement of tumor size was conducted three times weekly with a caliper and recorded. The tumor volume (mm^3) was estimated using the formula: TV=a×b^2/2, where “a” and “b” is long and short diameters of a tumor, respectively. Tumor volume was calculated using the formula [tumor volume (mm^3)=π/6×length×width^2).
(§2) Regression was calculated using the formula=100×ΔT/T initial, if ΔT<0. Animals with 0 mm^3 tumor volume (no measurable tumor) for three consecutive measurements were considered as complete responders and animals with 50% tumor regressions were partial responders.

For assay [3], the system named is KG-1 (human AML cancer cells). As to the kind of experiment: In vivo tumor growth inhibition, KG-1 xenograft. Conditions: 1 and 3 mg/kg twice daily oral. Also on record: species or system NOD SCID mice. As for the experimental part:
KG-1 (human AML cancer cells): Female 6-8 weeks old NOD SCID mice were inoculated subcutaneously on the right flank with KG1 tumor cells (5×10^6) in RPMI 1640 without serum for tumor development. The treatments were started when the mean tumor size reached approximately 194 mm^3 at Day 20 after cell inoculation and continued until end of study by twice daily oral gavage dosing of HC-7366 at listed doses (vehicle, 0.3 mg/kg HC-7366, 1 mg/kg HC-7366, 3 mg/kg HC-7366, 10 mg/kg HC-7366, or 30 mg/kg HC-7366, FIG. 17).
as §1, §2

The subject of assay [4] is ASNS, PSAT1, PHGDH, PUMA, S100A8/A9 in KG-1 tumors. In words: Tumor IHC, KG-1 tumors. Format: in vivo, NOD SCID mice. Here is the method: Immunohistochemical analysis was carried out on tumors that were collected at the end of the study described in Example 6. Formalin-fixed paraffin-embedded samples were sectioned at 5 μm thickness and mounted on Superfrost Plus microscope slides (Fisher Scientific). All immunohistochemical (IHC) staining was performed on Bond Rx auto-stainer (Leica Biosystems) using the conventional TSA-amplified detection system. Primary antibodies used were as follows: a-ASNS (Cell Signaling Technology #92479), a-PUMA (Cell Signaling Technology #98672), a-PSAT1 (Proteintech #10501-1-AP), a-PHGDH (Proteintech #14719-1-AP), HIF-1a-Novus Biologicals NB 100-479, HIF-2a-Novus Biologicals NB100-122SS, and GLUT-1-EMB Biosciences 07-1401. TSA-conjugated Alexa488, Alexa 568 and Alexa647 fluorophores from Invitrogen (#B40953, #B40956, and #B40958) were used at 1:500 dilution. Slides were counterstained with DAPI and cover slipped using Mowiol anti-fade mounting media (Sigma #D2522).
Slides were imaged with Aperio Versa 200 (Leica Biosystems) whole-slide scanner using 10×/0.32NA objective, and the data were analyzed using custom-written macros in ImageJ/FIJI (NIH). Briefly, 150 μm of outer edges of the tumor sections and necrotic regions (determined by lack of 4′,6-diamidino-2-phenylindole (DAPI) signal or presence of condensed DNA) were eliminated from the analysis. Gaussian-blurred DAPI channel was used to measure the area of the tumor tissue. Scans of immune-staining were processed to remove background, then total intensity value above appropriate threshold levels was measured and normalized to tissue area. All graphing and statistics (one-way ANOVA and pair-wise comparisons) were performed using Prism GraphPad.
Slides were deparaffinized, rehydrated and heat mediated antigen retrieval was conducted with AR6 buffer (Akoya). Slides were blocked with Roche diagnostics antibody diluent (Fisher) and stained with primary antibodies for 1 hr at 110 rpm. After washing, horseradish peroxidase (HRP)-conjugated secondary antibodies were added for 10 mins at 110 rpm. After washing, OPAL detection dye (Akoya) was added for a static 10 min incubation. Antigen retrieval was performed post OPAL staining, followed by DAPI staining and slide covering. Multispectral images were captured on the Polaris imaging system (Akoya) and spectral unmixing, cell segmentation and phenotyping was performed using Inform Tissue Finder software (Akoya). Imaging data was converted into .csv files and imported into Flowjo for analysis of S100A8/A9 percent positive cells. Primary antibodies used were rabbit anti-human/mouse S100A8/A9 (Clone RM1038, Abcam ab288715, paired with Opal 570).

For assay [5], the system named is ATF4, ASNS, PSAT1 in MOLM-16 cells. As to the kind of experiment: Jess protein analysis, MOLM-16 cells. In kind it is cell-based, human. To be noted: sgControl vs sgGCN2, 24 hr. As for the experimental part:
Cell lysates were obtained from MOLM-16 sgControl or sgGCN2 cells treated with HC-7366 (0, 0.01, 0.1 and 10 μM) for 24 hr. Ice cold 1x radioimmunoprecipitation assay (RIPA) lysis buffer supplemented with protease and phosphatase inhibitors was added to the cell pellets, on ice. After 30 min on ice, the cell lysates were centrifuged at 4° C., 12,000 rpm for 15 minutes and the supernatant collected. Protein concentration was determined using BCA kit. The cell lysates were mixed with 5× sodium dodecyl sulfate (SDS) loading buffer and denatured at 95° C. for 5 minutes. 1 μg lysate was run on Jess capillary and results were analyzed by compass simple western software.

The mark [6] stands for this setting: end of study (day 27), highest induction at 1 and 3 mg/kg.

SMILES strings stand for the structures.

As to `CNC(=O)c1ncn2cc(-c3c(F)ccc(NS(=O)(=O)c4cc(Cl)cnc4OC)c3F)ncc12` [HC-7366, 6-(3-((5-chloro-2-methoxypyridine)-3-sulfonamido)-2,6-difluorophenyl)-N-methylimidazo[1,5-a]pyrazine-1-carboxamide], in assay [1], the “ATF4 activity, cells treated with HC-7366 and Halofuginone” value was “GCN2 inhibitory effect”. Besides, the “effect on xenograft tumors” value in assay [2] (2 mg/kg twice daily oral) is listed as “complete eradication”. Also, the “effect on xenograft tumors” value in assay [2] (other doses (0.25, 0.5, 1 mg/kg twice daily)) is listed as “tumor growth inhibition”. For the same compound, the “effect on tumor growth” value in assay [3] is “tumor stasis”. The “protein levels of S100A8/A9” value in assay [4] (1 and 3 mg/kg doses, day 27) is listed as “potently reduced”. For the same compound, the PUMA levels result in assay [4] (day 27) is reported as “not changed”. Moreover, in assay [4] (setting [6]), the “ASNS by IHC” value is on record as “potently induced”, the “PHGDH by IHC” value is “potently induced” and the “PSAT1 by IHC” value is listed as “potently induced”. The “levels of ATF4, ASNS and PSAT1” value in assay [5] is given as “GCN2-dependent increase”.

Source of the values: US20250339426A1, “GCN2 MODULATOR FOR TREATING CANCER” (HIBERCELL, INC., priority 2022, published 2025).
